The values that follow come from patent publication US20200087248A1, “Fluoroallylamine Derivative And Use Thereof” (SICHUAN KELUN-BIOTECH BIOPHARMACEUTICAL CO., LTD., priority 2017, published 2020).

Counter-ions that a name gives are not always drawn.

Series [1] concerns the target T1, VAP-1 in abdominal fat of mice (Mus musculus, UniProt O70423).
T1 construct: abdominal fat was collected and homogenized; from tissue; host or cells: abdominal fat of BALBc mice (homogenate supernatant)
T1 sequence (O70423 1-765): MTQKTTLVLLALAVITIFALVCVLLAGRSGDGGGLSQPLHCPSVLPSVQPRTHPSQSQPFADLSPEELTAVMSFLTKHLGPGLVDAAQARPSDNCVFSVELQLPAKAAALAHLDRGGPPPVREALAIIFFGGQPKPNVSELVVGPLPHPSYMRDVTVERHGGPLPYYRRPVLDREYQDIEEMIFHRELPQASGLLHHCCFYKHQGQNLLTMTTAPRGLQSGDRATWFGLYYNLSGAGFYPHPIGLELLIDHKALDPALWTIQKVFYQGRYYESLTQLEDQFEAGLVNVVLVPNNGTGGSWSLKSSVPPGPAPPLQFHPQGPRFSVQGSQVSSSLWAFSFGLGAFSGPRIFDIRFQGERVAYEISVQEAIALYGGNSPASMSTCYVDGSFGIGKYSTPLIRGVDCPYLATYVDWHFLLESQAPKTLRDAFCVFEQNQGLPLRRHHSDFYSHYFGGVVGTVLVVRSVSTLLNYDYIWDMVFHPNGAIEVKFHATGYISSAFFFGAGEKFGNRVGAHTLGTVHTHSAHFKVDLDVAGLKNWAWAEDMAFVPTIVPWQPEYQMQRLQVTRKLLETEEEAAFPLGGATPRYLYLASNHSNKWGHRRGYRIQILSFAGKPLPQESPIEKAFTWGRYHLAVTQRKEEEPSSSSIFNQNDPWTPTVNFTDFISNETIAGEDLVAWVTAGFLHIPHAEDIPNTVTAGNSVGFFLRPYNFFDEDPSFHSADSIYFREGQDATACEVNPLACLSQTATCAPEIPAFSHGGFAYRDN
Nature of the series: Inhibition of the enzymatic activity of VAP-1 ex-vivo, abdominal fat after oral dosing. Conditions: 0.5 mg/kg oral, abdominal fat collected after six hours; for inhibition at 0.5 mg/kg: mouse, read-out: Inhibition rate (%) against the enzymatic activity of VAP-1 (ex-vivo). Format: in vivo, BALBc mice. On the procedure:
Inhibition Experiment Against the Enzymatic Activity (ex-vivo)
Tissue homogenate buffer solution (20 mM HEPES, pH 7.2, 1 mM EDTA, 250 mM sucrose, PMSF 0.2 mM)
Reaction buffer solution: 50 mM PBS, pH 7.4
Test kit: Amplex® Red Monoamine Oxidase Assay, Manufacturer: ThermoFisher
BALBc mice were administrated orally with different doses of the test compound, and the vehicle group was used as the control group. After six hours, abdominal fat was collected and homogenized at 1:20 (w/v) with the pre-cooled homogenate buffer solution, and thereafter, the homogenate was centrifuged at 10,000 g and 4° C. or 10 minutes, the supernatant was collected and stored at -80° C. for further use.
A test sample was diluted with the reaction buffer solution and successively added with the inhibition solution A: 1 μM Clorgyline+1 μM pargylin, to inhibit the activities of MAO-A and MAO-B, and the inhibition solution B: 1 μM Clorgyline+1 μM Pargylin+1 μM Mofegiline as the blank control, and after being incubated at room temperature for 20 min, 500 μM benzylamine hydrochloride, 1 U/mL HRP and 200 μM Amplex Red reagent were added to start the reaction. By referring to the method in “Experiment of inhibiting the enzymatic activity of VAP-1”, relative activity of each dose group was calculated, wherein the ratio of the fluorescent signal to reaction time in the linear range is the reaction rate, and the vehicle group is the positive control, thereby to study the inhibition of the compound against the enzymatic activity of VAP-1 in abdominal fat of mice.

The target in a further series is T2, CYP1A2 (Homo sapiens, UniProt P05177).
T2 construct: purchased Promega
T2 sequence (P05177 1-516): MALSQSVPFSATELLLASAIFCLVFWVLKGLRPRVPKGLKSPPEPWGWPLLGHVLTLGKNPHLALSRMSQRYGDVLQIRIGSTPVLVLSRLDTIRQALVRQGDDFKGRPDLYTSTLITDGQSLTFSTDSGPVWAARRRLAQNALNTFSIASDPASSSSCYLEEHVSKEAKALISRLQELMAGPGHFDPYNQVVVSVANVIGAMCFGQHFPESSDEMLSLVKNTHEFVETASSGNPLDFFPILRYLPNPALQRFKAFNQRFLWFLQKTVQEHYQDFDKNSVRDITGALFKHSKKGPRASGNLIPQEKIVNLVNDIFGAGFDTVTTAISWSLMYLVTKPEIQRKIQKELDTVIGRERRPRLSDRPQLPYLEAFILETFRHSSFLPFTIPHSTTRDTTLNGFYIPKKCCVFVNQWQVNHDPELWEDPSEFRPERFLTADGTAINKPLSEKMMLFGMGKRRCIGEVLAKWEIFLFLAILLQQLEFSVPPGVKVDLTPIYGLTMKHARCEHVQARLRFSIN
Put plainly: Inhibition of cytochrome P450 isoenzyme CYP1A2 (P450-Glo). Format: in vitro ADME. Conditions: estimated from inhibition rates at 10 μM and 1 μM. On the procedure:
(§1) Inhibition Experiment Against Cytochrome P450 Isoenzyme (CYP)
P450-Glo™ CYP1A2 Screening System, manufacturer: Promega
(§2) According to the specification of the test kit, 10 nM CYP1A2, 5 nMCYP2D6, and 1 nM CYP3A4 proteins and corresponding substrates (100 μM, 30 μM, 3 μM) as well as the compound were pre-incubating respectively for 10 min, G6PDH-G6P-NADP regeneration system was added to start the reaction, a test reagent was added later, after 20 min, the chemical luminescent signals were detectted.
(§3) Percent inhibition rate (%)=(1-(signal of each compound concentration group-signal of the blank group)/(signal of the negative control-signal of the blank group))*100.
(§4) According to the inhibition rates of the compound at different concentrations against P450 enzyme, the half inhibition concentration (IC5o) or range was estimated.
(§5) IC50=X*(1-percent inhibition rate (%))/percent inhibition rate (%), wherein, X is the test concentration of the compound.
(§6) According to the above method, the inhibition of the compound at the concentrations 10 μM, and 1 μM, against three CYPs were measured, and the results were shown in the following Tables 10-12: […]

In the next series the target is T3, CYP3A4 (Homo sapiens, UniProt P08684).
T3 construct: purchased Promega
T3 sequence (P08684 whole entry): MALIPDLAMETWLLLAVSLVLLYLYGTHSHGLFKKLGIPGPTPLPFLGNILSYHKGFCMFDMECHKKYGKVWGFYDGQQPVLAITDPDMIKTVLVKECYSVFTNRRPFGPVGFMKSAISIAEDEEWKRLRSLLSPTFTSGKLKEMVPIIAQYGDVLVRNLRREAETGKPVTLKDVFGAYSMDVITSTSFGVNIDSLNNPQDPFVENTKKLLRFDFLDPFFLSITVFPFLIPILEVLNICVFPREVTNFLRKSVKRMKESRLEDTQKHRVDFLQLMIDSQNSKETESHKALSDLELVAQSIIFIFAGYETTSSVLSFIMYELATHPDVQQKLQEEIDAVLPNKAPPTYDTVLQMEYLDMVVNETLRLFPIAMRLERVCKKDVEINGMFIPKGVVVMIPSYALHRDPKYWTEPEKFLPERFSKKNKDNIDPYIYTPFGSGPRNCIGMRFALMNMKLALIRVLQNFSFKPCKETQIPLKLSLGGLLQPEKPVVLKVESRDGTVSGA
Put plainly: Inhibition of cytochrome P450 isoenzyme CYP3A4 (P450-Glo). Format: in vitro ADME. As to conditions: estimated from inhibition rates at 10 μM and 1 μM; for IC50: read-out: IC50, inhibition against CYP3A4. On the procedure: as §1
P450-Glo™ CYP3A4 Screening System, manufacturer: Promega
as §2, §3, §4, §5, §6

The target of the next series is T4, CYP2D6 (Homo sapiens, UniProt P10635).
T4 construct: purchased Promega
T4 sequence (P10635 whole entry): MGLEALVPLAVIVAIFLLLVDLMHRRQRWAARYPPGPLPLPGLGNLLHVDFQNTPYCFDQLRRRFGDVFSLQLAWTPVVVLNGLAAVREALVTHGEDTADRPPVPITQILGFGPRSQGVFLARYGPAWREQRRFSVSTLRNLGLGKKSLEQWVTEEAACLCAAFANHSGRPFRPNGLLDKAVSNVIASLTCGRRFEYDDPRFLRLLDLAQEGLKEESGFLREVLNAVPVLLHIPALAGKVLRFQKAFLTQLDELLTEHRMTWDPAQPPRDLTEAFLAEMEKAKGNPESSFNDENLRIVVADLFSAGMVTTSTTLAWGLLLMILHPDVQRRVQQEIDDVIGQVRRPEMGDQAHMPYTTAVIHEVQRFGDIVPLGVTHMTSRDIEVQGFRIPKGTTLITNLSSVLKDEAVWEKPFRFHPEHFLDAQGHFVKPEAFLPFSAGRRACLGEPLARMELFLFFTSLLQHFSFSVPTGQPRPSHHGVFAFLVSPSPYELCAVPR
Put plainly: Inhibition of cytochrome P450 isoenzyme CYP2D6 (P450-Glo). Type of series: in vitro ADME. Conditions: estimated from inhibition rates at 10 μM and 1 μM; for IC50: read-out: IC50, inhibition against CYP2D6. As for the experimental part: as §1
P450-Glo™ CYP2D6 Screening System, manufacturer: Promega
as §2, §3, §4, §5, §6

A word on the inhibition: it is the share of the control response that was lost under treatment. Regarding `NC/C(=C\F)COc1ccc(C(=O)Nc2ccccc2)cc1` [TM1-E, (E)-N-phenyl-4-((2-aminomethyl-3-fluoroallyl)oxy)-benzamide trifluoroacetate], the inhibition at 0.5 mg/kg in series [1] was determined as 96.7 ± 2.2%.

As to `NC/C(=C/F)COc1ccc2c(c1)CCNC2=O` [TM26-Z, (Z)-6-((2-aminomethyl-3-fluoroallyl)oxy)-3,4-dihydroisoquinolin-1(2H)-one trifluoroacetate], the inhibition at 0.5 mg/kg in series [1] amounted to 86.6 ± 5.5%.

As for `NC/C(=C\F)COc1ccc(-c2ncccn2)cc1` [TM39-E, (E)-2-(4-(2-pyrimidyl)phenoxymethyl)-3-fluoroallylamine trifluoroacetate], the inhibition at 0.5 mg/kg in series [1] amounted to 93 ± 2.7%.

Usually IC50 stands for the point on the concentration scale where inhibition reaches its midpoint. On to “(E)-6-((2-(methylamino)-3-fluoroallyl)oxy)-2-methyl-3,4-dihydroisoquinolin-1(2H)-one trifluoroacetate [TM66-E]”, for which, at CYP1A2, the “IC50, inhibition against CYP1A2” value is on record as “do not have significant inhibitions”. Also, the “Inhibition rate (%) against the enzymatic activity of VAP-1 (ex-vivo)” value in series [1] is 92.3 ± 1.9%. In addition, at CYP3A4, the “IC50, inhibition against CYP3A4” value is recorded as “do not have significant inhibitions” and the IC50 is > 10 µM. In addition, on CYP2D6, the “IC50, inhibition against CYP2D6” value is recorded as “do not have significant inhibitions” and the IC50 was > 10 µM.

“(E)-6-((2-(methylamino)-3-fluoroallyl)oxy)-3,3-dimethyl-3,4-dihydro-isoquinolin-1(2H)-one trifluoroacetate [TM38-E]”: on CYP1A2, the “IC50, inhibition against CYP1A2” value is on record as “do not have significant inhibitions”. On CYP1A2 (read-out: IC50, inhibition against CYP1A2), the half-maximal inhibitory concentration (IC50) is 6.73 ± 0.39 µM. The “Inhibition rate (%) against the enzymatic activity of VAP-1 (ex-vivo)” value in series [1] amounted to 92.7 ± 3.0%. On CYP3A4, the “IC50, inhibition against CYP3A4” value is reported as “do not have significant inhibitions” and the IC50 is > 10 µM. Besides, on CYP2D6, the “IC50, inhibition against CYP2D6” value is listed as “do not have significant inhibitions” and the IC50 was > 10 µM.
